Results taken from patent US9302999B2, “Substituted triazoles as herbicides” (E. I. DU PONT DE NEMOURS AND COMPANY, priority 2012, dated 2016).
Like-named read-outs stand apart in the source and are kept apart here.

Tests used:
Assay type in all cases: in vivo
[1] = test system: foxtail, giant (giant foxtail, Setaria faberii); test: Test A pre-/postemergence: foxtail, giant; settings: Setaria faberi, 240 h; for pest or weed control at 125 g/ha: 125 g ai/ha; for pest or weed control at 500 g/ha: 500 g ai/ha
In short: (§1)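 Rating scale 0–100 (100 = complete control), visual, ~10 days after application in the greenhouse. Applications: preemergence directed soil spray; postemergence at 1–2 leaves.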

[2] = test system: wheat (Triticum aestivum); test: Test A pre-/postemergence: wheat; settings: Triticum aestivum, 240 h; for plant injury at 125 g/ha: 125 g ai/ha; for plant injury at 500 g/ha: 500 g ai/ha
In short: as §1

[3] = test system: crabgrass, large (large crabgrass, Digitaria sanguinalis); test: Test A pre-/postemergence: crabgrass, large; settings: Digitaria sanguinalis, 240 h; for pest or weed control at 125 g/ha: 125 g ai/ha; for pest or weed control at 500 g/ha: 500 g ai/ha
In short: as §1

[4] = test system: pigweed (Amaranthus retroflexus); test: Test A pre-/postemergence: pigweed; settings: Amaranthus retroflexus, 240 h; for pest or weed control at 125 g/ha: 125 g ai/ha; for pest or weed control at 500 g/ha: 500 g ai/ha
In short: as §1

[5] = post-emergence, Postemergence, 0 to 100 scale, 0 is no effect, 100 is complete control, read-out: Foxtail, Giant plant response rating
[6] = post-emergence, Postemergence, visual rating on 0 to 100 scale (0 no effect, 100 complete control), approximately ten days, read-out: Foxtail, Giant plant response rating
[7] = pre-emergence, Preemergence, 0 to 100 scale (0 no effect, 100 complete control), read-out: Plant response rating, Foxtail, Giant
[8] = pre-emergence, Preemergence, 0 to 100 scale, 0 is no effect, 100 is complete control, read-out: Plant response rating, Foxtail, Giant
[9] = post-emergence, Postemergence, 0 to 100 scale, 0 is no effect, 100 is complete control, read-out: Wheat plant response rating
[10] = post-emergence, Postemergence, visual rating on 0 to 100 scale (0 no effect, 100 complete control), approximately ten days, read-out: Wheat plant response rating
[11] = pre-emergence, Preemergence, 0 to 100 scale (0 no effect, 100 complete control), read-out: Plant response rating, Wheat
[12] = pre-emergence, Preemergence, 0 to 100 scale, 0 is no effect, 100 is complete control, read-out: Plant response rating, Wheat
[13] = post-emergence, Postemergence, 0 to 100 scale, 0 is no effect, 100 is complete control, read-out: Crabgrass, Large plant response rating
[14] = post-emergence, Postemergence, visual rating on 0 to 100 scale (0 no effect, 100 complete control), approximately ten days, read-out: Crabgrass, Large plant response rating
[15] = pre-emergence, Preemergence, 0 to 100 scale (0 no effect, 100 complete control), read-out: Plant response rating, Crabgrass, Large
[16] = pre-emergence, Preemergence, 0 to 100 scale, 0 is no effect, 100 is complete control, read-out: Plant response rating, Crabgrass, Large
[17] = post-emergence, Postemergence, 0 to 100 scale, 0 is no effect, 100 is complete control, read-out: Pigweed plant response rating
[18] = post-emergence, Postemergence, visual rating on 0 to 100 scale (0 no effect, 100 complete control), approximately ten days, read-out: Pigweed plant response rating
[19] = pre-emergence, Preemergence, 0 to 100 scale (0 no effect, 100 complete control), read-out: Plant response rating, Pigweed
[20] = pre-emergence, Preemergence, 0 to 100 scale, 0 is no effect, 100 is complete control, read-out: Plant response rating, Pigweed
[21] = pre-emergence, Preemergence, 0 to 100 scale where 0 is no effect and 100 is complete control, read-out: Plant response rating, Foxtail, Giant
[22] = pre-emergence, Preemergence, 0 to 100 scale where 0 is no effect and 100 is complete control, read-out: Plant response rating, Wheat
[23] = pre-emergence, Preemergence, 0 to 100 scale where 0 is no effect and 100 is complete control, read-out: Plant response rating, Crabgrass, Large
[24] = pre-emergence, Preemergence, 0 to 100 scale where 0 is no effect and 100 is complete control, read-out: Plant response rating, Pigweed

Row | Compound | pest or weed control at 125 g/ha [1, 5] [%] | pest or weed control at 500 g/ha [1, 6] [%] | pest or weed control at 125 g/ha [1, 7] [%] | pest or weed control at 500 g/ha [1, 8] [%] | plant injury at 125 g/ha [2, 9] [%] | plant injury at 500 g/ha [2, 10] [%] | plant injury at 125 g/ha [2, 11] [%] | plant injury at 500 g/ha [2, 12] [%] | pest or weed control at 125 g/ha [3, 13] [%] | pest or weed control at 500 g/ha [3, 14] [%] | pest or weed control at 125 g/ha [3, 15] [%] | pest or weed control at 500 g/ha [3, 16] [%] | pest or weed control at 125 g/ha [4, 17] [%] | pest or weed control at 500 g/ha [4, 18] [%] | pest or weed control at 125 g/ha [4, 19] [%] | pest or weed control at 500 g/ha [4, 20] [%] | pest or weed control at 125 g/ha [1, 21] [%] | pest or weed control at 500 g/ha [1, 7] [%] | plant injury at 125 g/ha [2, 22] [%] | plant injury at 500 g/ha [2, 11] [%] | also measured
1 | Cc1nn(-c2ccc(C(F)(F)F)cc2)nc1Oc1csc(C(F)(F)F)c1 [Compound 1, 4-methyl-2-[4-(trifluoromethyl)phenyl]-5-[[5-(trifluoromethyl)-3-thienyl]oxy]-2H-1,2,3-triazole] | 50 | 70 | 60 | 100 | 10 | 20 | 0 | 0 | 70 | 90 | 70 | 100 | 90 | 100 | 60 | 90 | – | – | – | – | –
2 | Cc1nn(-c2ccc(F)cc2F)nc1Cc1ccnc(C(F)(F)F)c1 [Compound 54, 4-[[2-(2,4-difluorophenyl)-5-methyl-2H-1,2,3-triazol-4-yl]methyl]-2-(trifluoromethyl)pyridine] | 80 | 90 | 100 | 100 | 20 | 30 | 10 | 30 | 80 | 90 | 100 | 100 | 100 | 100 | 100 | 100 | – | – | – | – | –
3 | COCc1nn(-c2ccc(C(F)(F)F)cc2)nc1Oc1cccc(OC(F)(F)F)c1 [Compound 115, 4-(methoxymethyl)-5-[3-(trifluoromethoxy)phenoxy]-2-[4-(trifluoromethyl)phenyl]-2H-1,2,3-triazole] | 30 | 60 | – | – | 10 | 20 | – | – | 50 | 80 | – | – | 80 | 100 | – | – | 60 | 100 | 0 | 10 | pest or weed control at 125 g/ha [3, 23]: 80%; pest or weed control at 500 g/ha [3, 15]: 100%; pest or weed control at 125 g/ha [4, 24]: 100%; pest or weed control at 500 g/ha [4, 19]: 100%
4 | FCc1nn(-c2ccc(C(F)(F)F)cc2)nc1Oc1cccc(OC(F)(F)F)c1 [Compound 116, 4-(fluoromethyl)-5-[3-(trifluoromethoxy)phenoxy]-2-[4-(trifluoromethyl)phenyl]-2H-1,2,3-triazole] | 30 | 50 | – | – | 10 | 10 | – | – | 40 | 80 | – | – | 50 | 100 | – | – | 60 | 90 | 0 | 10 | pest or weed control at 125 g/ha [3, 23]: 70%; pest or weed control at 500 g/ha [3, 15]: 100%; pest or weed control at 125 g/ha [4, 24]: 50%; pest or weed control at 500 g/ha [4, 19]: 100%
